Converted amounts (≈) assume the structure as drawn. Positions of bridges follow the written chain, without caps; N, C: chain ends. Non-standard residues stand in square brackets, D forms with d. Residues, ends and D or L forms follow the SMILES beside them. *: point of attachment. Benzoyl(4-Ph) = O=C(c1ccc(-c2ccccc2)cc1)*; Octanoyl = CCCCCCCC(=O)*; Dab = NCC[C@H](N)C(=O)O
Columns and labels:
Pseudomonas aeruginosa [1] = assay: Antibacterial activity against Pseudomonas aeruginosa PAO1 assessed as inhibition of bacterial growth incubated for 24 hrs by broth microdilution method; format: functional; details: read-out: MIC100
HK-2 = assay: Cytotoxicity against human HK-2 cells assessed as cell viability incubated for 72 hrs by CCK-8 assay; format: cell-based; details: hk-2, 72 h
Escherichia coli [2] = assay: Antibacterial activity against Escherichia coli assessed as inhibition of bacterial growth incubated for 24 hrs by broth microdilution method; format: functional; details: read-out: MIC100
Klebsiella pneumoniae [3] = assay: Antibacterial activity against Klebsiella pneumoniae KPN+14-10 assessed as inhibition of bacterial growth incubated for 24 hrs by broth microdilution method; format: functional; details: read-out: MIC100
Escherichia coli [4] = assay: Antibacterial activity against Escherichia coli ECO-14-2 assessed as inhibition of bacterial growth incubated for 24 hrs by broth microdilution method; format: functional; details: read-out: MIC100
Pseudomonas aeruginosa [5] = assay: Antibacterial activity against Pseudomonas aeruginosa PAE15-8 assessed as inhibition of bacterial growth incubated for 24 hrs by broth microdilution method; format: functional; details: read-out: MIC100
Moraxella catarrhalis [6] = assay: Antibacterial activity against Moraxella catarrhalis BCA14-7 assessed as inhibition of bacterial growth incubated for 24 hrs by broth microdilution method; format: functional; details: read-out: MIC100
Acinetobacter baumannii [7] = assay: Antibacterial activity against Acinetobacter baumannii ABA15-5 assessed as inhibition of bacterial growth incubated for 24 hrs by broth microdilution method; format: functional; details: read-out: MIC100
Pseudomonas aeruginosa [8] = assay: Antibacterial activity against Pseudomonas aeruginosa PR15-1 assessed as inhibition of bacterial growth incubated for 24 hrs by broth microdilution method; format: functional; details: read-out: MIC100
Pseudomonas aeruginosa [9] = assay: Antibacterial activity against Pseudomonas aeruginosa PAE15-3 assessed as inhibition of bacterial growth incubated for 24 hrs by broth microdilution method; format: functional; details: read-out: MIC100
Pseudomonas aeruginosa [10] = assay: Antibacterial activity against Pseudomonas aeruginosa ATCC 27853 assessed as inhibition of bacterial growth incubated for 24 hrs by broth microdilution method; format: functional; details: read-out: MIC100
Klebsiella pneumoniae [11] = assay: Antibacterial activity against Klebsiella pneumoniae KR15-2 assessed as inhibition of bacterial growth incubated for 24 hrs by broth microdilution method; format: functional; details: read-out: MIC100
Escherichia coli [12] = assay: Antibacterial activity against Escherichia coli ECO+14-3 assessed as inhibition of bacterial growth incubated for 24 hrs by broth microdilution method; format: functional; details: read-out: MIC100
Klebsiella pneumoniae [13] = assay: Antibacterial activity against Klebsiella pneumoniae assessed as inhibition of bacterial growth incubated for 24 hrs by broth microdilution method; format: functional; details: read-out: MIC100
Acinetobacter baumannii [14] = assay: Antibacterial activity against Acinetobacter baumannii assessed as inhibition of bacterial growth incubated for 24 hrs by broth microdilution method; format: functional; details: read-out: MIC100
Acinetobacter baumannii [15] = assay: Antibacterial activity against Acinetobacter baumannii ABA15-4 assessed as inhibition of bacterial growth incubated for 24 hrs by broth microdilution method; format: functional; details: read-out: MIC100
Acinetobacter baumannii [16] = assay: Antibacterial activity against Acinetobacter baumannii AR15-4 assessed as inhibition of bacterial growth incubated for 24 hrs by broth microdilution method; format: functional; details: read-out: MIC100
Acinetobacter baumannii [17] = assay: Antibacterial activity against Acinetobacter baumannii ABA15-6 assessed as inhibition of bacterial growth incubated for 24 hrs by broth microdilution method; format: functional; details: read-out: MIC100
Escherichia coli [18] = assay: Antibacterial activity against Escherichia coli ECO+14-2 assessed as inhibition of bacterial growth incubated for 24 hrs by broth microdilution method; format: functional; details: read-out: MIC100
Pseudomonas aeruginosa [19] = assay: Antibacterial activity against Pseudomonas aeruginosa PAE15-14 assessed as inhibition of bacterial growth incubated for 24 hrs by broth microdilution method; format: functional; details: read-out: MIC100
Klebsiella pneumoniae [20] = assay: Antibacterial activity against Klebsiella pneumoniae KPN+14-8 assessed as inhibition of bacterial growth incubated for 24 hrs by broth microdilution method; format: functional; details: read-out: MIC100
Pseudomonas aeruginosa [21] = assay: Antibacterial activity against Pseudomonas aeruginosa assessed as inhibition of bacterial growth incubated for 24 hrs by broth microdilution method; format: functional; details: read-out: MIC100
Pseudomonas aeruginosa [22] = assay: Antibacterial activity against Pseudomonas aeruginosa PAE15-5 assessed as inhibition of bacterial growth incubated for 24 hrs by broth microdilution method; format: functional; details: read-out: MIC100
Moraxella catarrhalis [23] = assay: Antibacterial activity against Moraxella catarrhalis BCA15-3 assessed as inhibition of bacterial growth incubated for 24 hrs by broth microdilution method; format: functional; details: read-out: MIC100
Moraxella catarrhalis [24] = assay: Antibacterial activity against Moraxella catarrhalis assessed as inhibition of bacterial growth incubated for 24 hrs by broth microdilution method; format: functional; details: read-out: MIC100

MIC (Pseudomonas aeruginosa [1]) [µg/mL] | MIC (Escherichia coli [2]) [µg/mL] | MIC (Klebsiella pneumoniae [3]) [µg/mL] | MIC (Escherichia coli [4]) [µg/mL] | MIC (Pseudomonas aeruginosa [5]) [µg/mL] | MIC (Moraxella catarrhalis [6]) [µg/mL] | MIC (Acinetobacter baumannii [7]) [µg/mL] | MIC (Pseudomonas aeruginosa [8]) [µg/mL] | MIC (Pseudomonas aeruginosa [9]) [µg/mL] | MIC (Klebsiella pneumoniae [11]) [µg/mL] | MIC (Escherichia coli [12]) [µg/mL] | MIC (Klebsiella pneumoniae [13]) [µg/mL] | MIC (Acinetobacter baumannii [14]) [µg/mL] | MIC (Acinetobacter baumannii [15]) [µg/mL] | MIC (Acinetobacter baumannii [16]) [µg/mL] | MIC (Acinetobacter baumannii [17]) [µg/mL] | MIC (Escherichia coli [18]) [µg/mL] | MIC (Pseudomonas aeruginosa [19]) [µg/mL] | MIC (Klebsiella pneumoniae [20]) [µg/mL] | SMILES | Activity (HK-2) | further results
4 (≈ 2.79 µM) | – | – | – | – | – | – | – | – | – | – | – | – | – | – | – | – | – | – | CC[C@H](C)CCCCC(=O)N[C@@H](CCN)C(=O)N[C@H](C(=O)N[C@@H](CCN)C(=O)N[C@H]1CCNC(=O)[C@H]([C@@H](C)OC(=O)[C@@H](N)CC(=O)O)NC(=O)[C@H](CCN)NC(=O)[C@H](CCN)NC(=O)[C@H](CC(C)C)NC(=O)[C@@H](Cc2ccccc2)NC(=O)[C@H](CCN)NC1=O)[C@@H](C)OC(=O)[C@@H](N)CC(=O)O | Non-Toxic | –
2 (≈ 1.63 µM) | 0.5 (≈ 0.409 µM) | 2 (≈ 1.63 µM) | 0.5 (≈ 0.409 µM) | 0.5 (≈ 0.409 µM) | 8 (≈ 6.54 µM) | 0.25 (≈ 0.204 µM) | 0.5 (≈ 0.409 µM) | 0.5 (≈ 0.409 µM) | 1 (≈ 0.817 µM) | 0.5 (≈ 0.409 µM) | 1 (≈ 0.817 µM) | 0.25 (≈ 0.204 µM) | 0.5 (≈ 0.409 µM) | 0.25 (≈ 0.204 µM) | 0.5 (≈ 0.409 µM) | 1 (≈ 0.817 µM) | 0.5 (≈ 0.409 µM) | 4 (≈ 3.27 µM) | CCCCCc1ccc(CN[C@@H](CCN)C(=O)N[C@H](C(=O)N[C@@H](CCN)C(=O)N[C@H]2CCNC(=O)[C@H]([C@@H](C)O)NC(=O)[C@H](CCN)NC(=O)[C@H](CCN)NC(=O)[C@H](CC(C)C)NC(=O)[C@@H](Cc3ccccc3)NC(=O)[C@H](CCN)NC2=O)[C@@H](C)O)cc1 | – | MIC (Pseudomonas aeruginosa [10]): 0.25 µg/mL (≈ 0.204 µM); MIC (Pseudomonas aeruginosa [21]): 0.25 µg/mL (≈ 0.204 µM); MIC (Pseudomonas aeruginosa [22]): 0.5 µg/mL (≈ 0.409 µM); MIC (Moraxella catarrhalis [23]): 1 µg/mL (≈ 0.817 µM); MIC (Moraxella catarrhalis [24]): 8 µg/mL (≈ 6.54 µM)
– | – | – | – | – | – | – | – | – | – | – | – | – | – | – | – | – | – | – | CC[C@H](C)CCCCC(=O)N[C@@H](CCN)C(=O)N[C@H](C(=O)N[C@@H](CCN)C(=O)N[C@H]1CCNC(=O)[C@H]([C@@H](C)O)NC(=O)[C@H](CCN)NC(=O)[C@H](CCN)NC(=O)[C@H](CC(C)C)NC(=O)[C@@H](Cc2ccccc2)NC(=O)[C@H](CCN)NC1=O)[C@@H](C)OC(=O)[C@@H](N)CCC(N)=O | Non-Toxic | –
– | – | – | – | – | – | – | – | – | – | – | – | – | – | – | – | – | – | – | CC[C@H](C)CCCCC(=O)N[C@@H](CCN)C(=O)N[C@H](C(=O)N[C@@H](CCN)C(=O)N[C@H]1CCNC(=O)[C@H]([C@@H](C)O)NC(=O)[C@H](CCN)NC(=O)[C@H](CCN)NC(=O)[C@H](CC(C)C)NC(=O)[C@@H](Cc2ccccc2)NC(=O)[C@H](CCN)NC1=O)[C@@H](C)OC(=O)[C@@H](N)CCC(=O)O | Non-Toxic | –
4 (≈ 3.36 µM) | 0.25 (≈ 0.21 µM) | 2 (≈ 1.68 µM) | 0.25 (≈ 0.21 µM) | 0.25 (≈ 0.21 µM) | 32 (≈ 26.9 µM) | 0.125 (≈ 0.105 µM) | 0.25 (≈ 0.21 µM) | 0.25 (≈ 0.21 µM) | 2 (≈ 1.68 µM) | 0.25 (≈ 0.21 µM) | 2 (≈ 1.68 µM) | 0.03 (≈ 0.0252 µM) | < 0.03 | 0.06 (≈ 0.0504 µM) | < 0.03 | 2 (≈ 1.68 µM) | 0.25 (≈ 0.21 µM) | 8 (≈ 6.73 µM) | CCCCCCCC(=O)N[C@@H](CCN)C(=O)N[C@H](C(=O)N[C@@H](CCN)C(=O)N[C@H]1CCNC(=O)[C@H]([C@@H](C)O)NC(=O)[C@H](CCN)NC(=O)[C@H](CCN)NC(=O)[C@H](CC(C)C)NC(=O)[C@@H](Cc2ccccc2)NC(=O)[C@H](CCN)NC1=O)[C@@H](C)O (Octanoyl-[Dab]T[Dab][Dab][Dab][dF]L[Dab][Dab]T; lactam 4-C) | – | MIC (Pseudomonas aeruginosa [21]): 0.03 µg/mL (≈ 0.0252 µM); MIC (Pseudomonas aeruginosa [22]): 0.125 µg/mL (≈ 0.105 µM); MIC (Moraxella catarrhalis [23]): 1 µg/mL (≈ 0.841 µM); MIC (Moraxella catarrhalis [24]): 16 µg/mL (≈ 13.5 µM)
4 (≈ 3.22 µM) | 0.5 (≈ 0.402 µM) | 2 (≈ 1.61 µM) | 0.5 (≈ 0.402 µM) | 0.125 (≈ 0.101 µM) | 16 (≈ 12.9 µM) | 0.06 (≈ 0.0483 µM) | 5 (≈ 4.02 µM) | 0.5 (≈ 0.402 µM) | 2 (≈ 1.61 µM) | 1 (≈ 0.804 µM) | 2 (≈ 1.61 µM) | 0.06 (≈ 0.0483 µM) | 0.06 (≈ 0.0483 µM) | 0.06 (≈ 0.0483 µM) | 0.125 (≈ 0.101 µM) | 2 (≈ 1.61 µM) | 0.125 (≈ 0.101 µM) | 4 (≈ 3.22 µM) | CC(C)C[C@@H]1NC(=O)[C@@H](Cc2ccccc2)NC(=O)[C@H](CCN)NC(=O)[C@@H](NC(=O)[C@H](CCN)NC(=O)[C@@H](NC(=O)[C@H](CCN)NC(=O)c2ccc(-c3ccccc3)cc2)[C@@H](C)O)CCNC(=O)[C@H]([C@@H](C)O)NC(=O)[C@H](CCN)NC(=O)[C@H](CCN)NC1=O ({Benzoyl(4-Ph)}-[Dab]T[Dab][Dab][Dab][dF]L[Dab][Dab]T; lactam 4-C) | – | MIC (Pseudomonas aeruginosa [10]): 0.06 µg/mL (≈ 0.0483 µM); MIC (Pseudomonas aeruginosa [21]): 0.06 µg/mL (≈ 0.0483 µM); MIC (Pseudomonas aeruginosa [22]): 0.125 µg/mL (≈ 0.101 µM); MIC (Moraxella catarrhalis [23]): 1 µg/mL (≈ 0.804 µM); MIC (Moraxella catarrhalis [24]): 8 µg/mL (≈ 6.43 µM)

— ChEMBL document CHEMBL4825673, “Total and Semisyntheses of Polymyxin Analogues with 2-Thr or 10-Thr Modifications to Decipher the Structure-Activity Relationship and Improve the Antibacterial Activity” (J Med Chem, 2021)
